Laboratory results reported in a melting point compilation (Tetko et al.).

| Compound | melting point |
| --- | --- |
| Nc1ccc(F)cc1-c1ccc(Cl)cc1 | 54 to 56 °C |
| NNC(=O)CNc1ccccc1F | 99 to 101 °C |
| N#Cc1ccccc1Oc1cnccn1 | 73 to 75 °C |
| O=C(O)c1ccc(-c2ccco2)o1 | 147 to 149 °C |
| O=C(O)c1cc(-c2ccccc2)cc(Cl)c1O | 202 to 204 °C |
| N#CC1=C(N)Oc2ccccc2C1 | 143 to 145 °C |
| CCOC(=O)CN(C)c1ccncc1[N+](=O)[O-] | 82 to 84 °C |
| O=C(O)Cn1ccc2cc([N+](=O)[O-])ccc21 | 192 to 194 °C |
| Cc1cc(C(=O)O)c2c(C)n[nH]c2n1 | 299 to 301 °C |
| Cc1cc(/C=C(\C#N)C(=O)O)c(C)n1-c1ccccc1F | 165 to 167 °C |
| O=C(O)/C(=C\c1ccccc1)c1ccc(Cl)cc1 | 179 to 183 °C |
| O=C(O)C(=Cc1ccc(Cl)cc1)c1ccc(F)cc1 | 204 to 206 °C |
| Cc1nn(C(F)F)c(C)c1CC(=O)O | 173 to 175 °C |
| CC(C)(C)OC(=O)NCc1nnc(-c2cccnc2)[nH]1 | 196 to 198 °C |
| O=[N+]([O-])c1ccc(N2CCNCC2)cn1 | 147 to 149 °C |
| NS(=O)(=O)CCc1ccc([N+](=O)[O-])cc1 | 118 to 120 °C |
| O=C(O)C1(c2ccc(F)cc2)CC1 | 126 to 128 °C |
| O=C(O)c1cnc(-c2ccccc2Cl)s1 | 200 to 202 °C |
| Nc1ccc(CC(=O)Nc2ccccc2F)cc1 | 110 to 112 °C |
| CC1(c2ccc(Cl)s2)NC(=O)NC1=O (configuration not stated) | 183 to 185 °C |
| Cc1cc(C(=O)CCl)c(C)n1CC1CCCO1 (configuration not stated) | 88 to 90 °C |
| CCS(=O)(=O)c1ccc(CCC(=O)O)cc1 | 119 to 121 °C |
| COC(=O)c1nsnc1C(=O)O | 82 to 84 °C |
| COc1ccnc(NCC(=O)O)n1 | 190 to 192 °C |
| O=C(O)c1ccc(-c2ccco2)[nH]c1=O | 299 to 301 °C |
| N=C1NCCO1 | 69 to 71 °C |

| Compound | melting point |
| --- | --- |
| CSC(=NS(C)(=O)=O)SC | 88 to 90 °C |
| COc1ccc(Cn2[nH]cc(Br)c2=N)cc1 | 92 to 94 °C |
| NC1CCN(c2ncccn2)CC1 | 82 to 84 °C |
| CCn1cc(S(=O)(=O)Cl)nc1C | 65 to 67 °C |
| Nc1ccccc1-c1[nH]nc2c1CCC2 | 128 to 130 °C |
| CCCCNc1nc2ccc(C)cc2s1 | 70 to 72 °C |
| COc1cccc(OC)c1CC(=O)O | 149 to 151 °C |
| CC(C)S(N)(=O)=O | 44 to 46 °C |
| CSc1nc(NC(C)=O)n(C(C)=O)n1 | 226 to 228 °C |
| NC(=O)CCc1ccc(C(=O)O)cc1 | 226 to 228 °C |
| O=C(O)c1sc2ccccc2c1CSc1ccccc1Cl | 183 to 185 °C |
| c1ccc(CC2CCN(Cc3ccccc3)CC2)cc1 | 65 to 67 °C |
| CCOc1ccc(C(C)=O)cc1CN1CCCCC1 | 33 to 37 °C |
| CCOC(=O)c1csc(CC#N)n1 | 77 to 79 °C |
| O=C(O)c1nn(-c2c(Cl)cc(Cl)cc2Cl)cc1O | 194 to 196 °C |
| Nc1nccc(-c2ccccc2)n1 | 162 to 164 °C |
| Nc1ccc(OCC2CCCCC2)cc1 | 53 to 55 °C |
| O=C(O)CCN1C(=O)COc2ccccc21 | 168 to 170 °C |
| CCOc1ccc(-c2nc(N)sc2C)cc1 | 98 to 100 °C |
| CS(=O)(=O)c1cccc(Cl)c1C(=O)O | 147 to 149 °C |
| O=Cc1csc(-c2ccc(F)cc2)n1 | 99 to 101 °C |
| O=C(O)C(=Cc1cccnc1)NC(=O)c1ccccc1 | 189 to 191 °C |
| CC1CCCN1C(=O)c1ccc(C#N)cc1 (configuration not stated) | 87 to 89 °C |
| CN1CCN(S(=O)(=O)c2cccc(C(=O)O)c2)CC1 | 230 to 232 °C |
| CCc1c(C)sc2[nH]c(COCC(=O)O)nc(=O)c12 | 193 to 195 °C |
| Nc1ccc(N2CCCCC2)c(S(=O)(=O)Nc2ccccc2Cl)c1 | 146 to 148 °C |

| Compound | melting point |
| --- | --- |
| COC(=O)c1c(C2CC2)csc1N | 72 to 74 °C |
| Cc1c(C(=O)O)cnn1-c1ccc(Br)cc1 | 211 to 213 °C |
| N#Cc1cc(Cl)nc2ccc(Cl)cc12 | 168 to 170 °C |
| CC1Oc2ccccc2N(CC(=O)O)C1=O (configuration not stated) | 146 to 148 °C |
| O=c1ccc(C(F)(F)F)n[nH]1 | 125 to 127 °C |
| CCOC(=O)c1nc(C)oc1N | 123 to 125 °C |
| O=c1[nH]c2ccc([N+](=O)[O-])cc2o1 | 242 to 244 °C |
| CC(C)c1ccc(SC(C(=O)O)c2ccccc2)cc1 (configuration not stated) | 99 to 101 °C |
| O=Cc1cnn(Cc2ccccc2)c1 | 43 to 45 °C |
| O=C(O)CCC(=O)NCC(=O)c1ccccc1 | 143 to 145 °C |
| CCC(=O)NC(C)C(=O)O (configuration not stated) | 89 to 91 °C |
| C#CCN1C(=O)COc2ccc(Br)cc21 | 111 to 113 °C |
| COc1ccc(C(=O)O)cc1-c1ccnn1C | 225 to 227 °C |
| Nc1nc2c(s1)CCCC2 | 30 to 32 °C |
| N#Cc1c(CCCN)n[nH]c1N | 169 to 171 °C |
| CCc1ccc(C(C)(C)C(=O)O)cc1 | 52 to 54 °C |
| CC(=O)c1nc2ccc(Cl)cc2[nH]1 | 173 to 175 °C |
| O=C(O)C(c1ccc(Br)cc1)N1CCCC1 (configuration not stated) | 214 to 216 °C |
| OC1CCCCC1c1ccc(Cl)cc1 (configuration not stated) | 83 to 85 °C |
| N#Cc1nc(Cl)ccc1Cl | 98 to 100 °C |
| Cc1cc(=O)oc2cc(OCC(=O)O)ccc12 | 206 to 208 °C |
| N#Cc1ccccc1Oc1ccc(C(=O)O)cc1Cl | 174 to 176 °C |
| Cc1nn(-c2ccc(Cl)cc2)c(C)c1C=O | 131 to 133 °C |
| CC(C)(C)c1nccc(=O)[nH]1 | 205 to 207 °C |
| O=C(O)c1ccccc1N1CCOCC1 | 58 to 60 °C |
| N#Cc1c(Cl)nc2ccccn12 | 181 to 183 °C |

| Compound | melting point |
| --- | --- |
| Cc1ccc2cccnc2c1S(=O)(=O)Cl | 149 to 151 °C |
| CN1CCNc2cccnc21 | 89 to 91 °C |
| Cc1ccc(NC(=O)C2CCCNC2)nc1 (configuration not stated) | 144 to 146 °C |
| O=C1NC(=O)N(C2CCS(=O)(=O)C2)C1=O (configuration not stated) | 244 to 246 °C |
| CC(O)(C(=O)O)c1cccc(F)c1 (configuration not stated) | 99 to 101 °C |
| Cc1ccc(S(=O)(=O)NCC2CCCO2)cc1C(=O)O (configuration not stated) | 160 to 162 °C |
| CC(C(=O)O)N(C)c1nccn2cnnc12 (configuration not stated) | 153 to 155 °C |
| O=C(CCl)Nc1ccc([N+](=O)[O-])cc1Br | 165 to 167 °C |
| CCc1ccccc1C(=O)O | 62 to 66 °C |
| CCOc1ccc(NC(=O)CCl)cc1S(=O)(=O)N1CCCCC1 | 129 to 131 °C |
| O=C(O)c1cc(OCC(F)(F)F)ccc1[N+](=O)[O-] | 156 to 158 °C |
| COC(=O)c1cc([N+](=O)[O-])c(C)cc1C | 57 to 59 °C |
| CC(=O)CC(=O)Nc1ccc(C)c(Cl)c1 | 108 to 110 °C |
| Cc1ccc(C2(C)CC(=O)NC2=O)cc1 (configuration not stated) | 69 to 71 °C |
| ClCc1nnc(-c2cc3c(s2)CCCC3)o1 | 107 to 109 °C |
| Nc1nc(-c2ccc(OC(F)F)cc2OC(F)F)cs1 | 86 to 88 °C |
| CC1=NN(c2cccc(Br)c2)C(=O)C1CC(=O)O (configuration not stated) | 201 to 203 °C |
| CCOC(=O)c1cc(N2CCNC(=O)C2)ccc1N | 126 to 128 °C |
| CCCCc1c(C)nc2nc(S)nn2c1C | 248 to 250 °C |
| O=C(O)c1cccc(C2CCCOC2)c1 (configuration not stated) | 82 to 84 °C |
| COc1cc(C(=O)O)ccc1OCc1cccnc1 | 179 to 181 °C |
| COc1ccc(C)cc1Nc1nnc(S)s1 | 210 to 212 °C |
| Cn1nnnc1Sc1ccc(Cl)cc1N | 128 to 130 °C |
| Cc1nc(N)nc(C2CC2)n1 | 114 to 116 °C |
